According to patent US20260130395A1, “Water Dispersible Botanical Compositions” (Aquila Black Limited, priority 2021, published 2026):

Experiment: Stability of cannabinoid compounds and Vitamin E components in Beverage 2 (AB Red) by LCMSMS
Type: physicochemical

Question: Which “Stability of Plant-Derived Cannabinoid Compounds in AB Red” value (shortened to “Stability”) (stored at 8° C., 0 days) does the source give for `CCCCCc1cc(O)c2c(c1)OC1(C)CCC3C1C2C3(C)C` (centres unmarked) [CBL, cannabicyclol] here?
Answer: The value was 0.510 µg/mL.

Question: What about the “Stability” value (stored at 8° C., 1 days) of the same compound?
Answer: Its value is 0.512 µg/mL.

Question: And the “Stability” value (stored at 8° C., 2 days)?
Answer: The value was 0.508 µg/mL.

Question: And the “Stability” value (stored at 8° C., 3 days)?
Answer: Its value is 0.499 µg/mL.

Question: And the “Stability” value (stored at 8° C., 5 days)?
Answer: The value was 0.501 µg/mL.

Question: And the “Stability” value (stored at 8° C., 8 days)?
Answer: The value was 0.496 µg/mL.

Question: And the “Stability” value (stored at 8° C., 9 days)?
Answer: Its value is 0.496 µg/mL.

Question: What about the “Stability” value (stored at 8° C., 10 days) of the same compound?
Answer: Its value is 0.505 µg/mL.

Question: And the “Stability” value (stored at 8° C., 11 days)?
Answer: Its value is 0.501 µg/mL.

Question: What about the “Stability” value (stored at 8° C., 12 days) of the same compound?
Answer: Its value is 0.499 µg/mL.

Question: And the “Stability” value (stored at 8° C., 15 days)?
Answer: Its value is 0.510 µg/mL.

Question: What about the “Stability” value (stored at 8° C., 16 days) of the same compound?
Answer: Its value is 0.502 µg/mL.

Question: What about the “Stability” value (stored at 8° C., 17 days) of the same compound?
Answer: Its value is 0.514 µg/mL.

Question: What about the “Stability” value (stored at 8° C., 18 days) of the same compound?
Answer: The value was 0.513 µg/mL.

Question: And the “Stability” value (stored at 8° C., 19 days)?
Answer: Its value is 0.510 µg/mL.

Question: And the “Stability” value (stored at 8° C., 22 days)?
Answer: Its value is 0.495 µg/mL.

Question: What about the “Stability” value (stored at 8° C., 23 days) of the same compound?
Answer: The value was 0.502 µg/mL.

Question: What about the “Stability” value (stored at 8° C., 24 days) of the same compound?
Answer: The value was 0.508 µg/mL.

Question: And the “Stability” value (stored at 8° C., 25 days)?
Answer: Its value is 0.510 µg/mL.

Question: What about the “Stability” value (stored at 8° C., 26 days) of the same compound?
Answer: Its value is 0.502 µg/mL.

Question: What about the “Stability” value (stored at 8° C., 29 days) of the same compound?
Answer: Its value is 0.511 µg/mL.

Question: And the “Stability” value (stored at 8° C., 30 days)?
Answer: Its value is 0.511 µg/mL.

Question: And the “Stability” value (stored at 8° C., 60 days)?
Answer: The value was 0.491 µg/mL.

Question: What about the “Stability” value (stored at 8° C., 90 days) of the same compound?
Answer: The value was 0.501 µg/mL.

Question: And the “Stability” value (stored at 8° C., 120 days)?
Answer: Its value is 0.488 µg/mL.

Question: What about the “Stability” value (stored at 8° C., 150 days) of the same compound?
Answer: The value was 0.501 µg/mL.

Question: And the “Stability” value (stored at 8° C., 180 days)?
Answer: The value was 0.506 µg/mL.

Question: And the “Stability” value (stored at 8° C., 210 days)?
Answer: Its value is 0.490 µg/mL.

Question: What about the “Stability” value (stored at 8° C., 240 days) of the same compound?
Answer: Its value is 0.490 µg/mL.

Question: What about the “Stability” value (stored at 8° C., 270 days) of the same compound?
Answer: Its value is 0.504 µg/mL.

Question: And the “Stability” value (stored at 8° C., 300 days)?
Answer: Its value is 0.489 µg/mL.

Question: And the “Stability” value (stored at 8° C., 330 days)?
Answer: The value was 0.505 µg/mL.

Question: What about the “Stability” value (stored at 8° C., 360 days) of the same compound?
Answer: The value was 0.495 µg/mL.

Question: And the “Stability” value (stored at 8° C., 390 days)?
Answer: Its value is 0.491 µg/mL.

Question: What about the “Stability” value (stored at 8° C., 420 days) of the same compound?
Answer: The value was 0.494 µg/mL.

Question: And the “Stability” value (stored at 8° C., 450 days)?
Answer: The value was 0.492 µg/mL.

Question: And the “Stability” value (stored at 8° C., 480 days)?
Answer: Its value is 0.487 µg/mL.

Question: What about the “Stability” value (stored at 8° C., 510 days) of the same compound?
Answer: Its value is 0.468 µg/mL.

Question: What about the “Stability” value (stored at 8° C., 540 days) of the same compound?
Answer: The value was 0.470 µg/mL.

Question: What about the “Stability” value (stored at 8° C., 570 days) of the same compound?
Answer: The value was 0.469 µg/mL.

Question: What about the “Stability” value (stored at 21-25° C., 0 days) of the same compound?
Answer: The value was 0.51 µg/mL.

Question: And the “Stability” value (stored at 21-25° C., 1 days)?
Answer: Its value is 0.50 µg/mL.

Question: What about the “Stability” value (stored at 21-25° C., 2 days) of the same compound?
Answer: Its value is 0.50 µg/mL.

Question: What about the “Stability” value (stored at 21-25° C., 3 days) of the same compound?
Answer: Its value is 0.50 µg/mL.

Question: What about the “Stability” value (stored at 21-25° C., 5 days) of the same compound?
Answer: Its value is 0.51 µg/mL.

Question: And the “Stability” value (stored at 21-25° C., 8 days)?
Answer: Its value is 0.50 µg/mL.

Question: What about the “Stability” value (stored at 21-25° C., 9 days) of the same compound?
Answer: The value was 0.51 µg/mL.

Question: What about the “Stability” value (stored at 21-25° C., 10 days) of the same compound?
Answer: The value was 0.50 µg/mL.

Question: And the “Stability” value (stored at 21-25° C., 11 days)?
Answer: Its value is 0.50 µg/mL.

Question: What about the “Stability” value (stored at 21-25° C., 12 days) of the same compound?
Answer: Its value is 0.50 µg/mL.

Question: And the “Stability” value (stored at 21-25° C., 15 days)?
Answer: The value was 0.50 µg/mL.

Question: What about the “Stability” value (stored at 21-25° C., 16 days) of the same compound?
Answer: Its value is 0.51 µg/mL.

Question: What about the “Stability” value (stored at 21-25° C., 17 days) of the same compound?
Answer: Its value is 0.51 µg/mL.

Question: What about the “Stability” value (stored at 21-25° C., 18 days) of the same compound?
Answer: Its value is 0.50 µg/mL.

Question: What about the “Stability” value (stored at 21-25° C., 19 days) of the same compound?
Answer: The value was 0.49 µg/mL.

Question: And the “Stability” value (stored at 21-25° C., 22 days)?
Answer: Its value is 0.49 µg/mL.

Question: And the “Stability” value (stored at 21-25° C., 23 days)?
Answer: The value was 0.51 µg/mL.

Question: And the “Stability” value (stored at 21-25° C., 24 days)?
Answer: The value was 0.50 µg/mL.

Question: What about the “Stability” value (stored at 21-25° C., 25 days) of the same compound?
Answer: The value was 0.51 µg/mL.

Question: And the “Stability” value (stored at 21-25° C., 26 days)?
Answer: The value was 0.51 µg/mL.

Question: What about the “Stability” value (stored at 21-25° C., 29 days) of the same compound?
Answer: Its value is 0.49 µg/mL.

Question: And the “Stability” value (stored at 21-25° C., 30 days)?
Answer: The value was 0.51 µg/mL.

Question: And the “Stability” value (stored at 21-25° C., 60 days)?
Answer: Its value is 0.50 µg/mL.

Question: And the “Stability” value (stored at 21-25° C., 90 days)?
Answer: Its value is 0.49 µg/mL.

Question: What about the “Stability” value (stored at 21-25° C., 120 days) of the same compound?
Answer: The value was 0.50 µg/mL.

Question: What about the “Stability” value (stored at 21-25° C., 150 days) of the same compound?
Answer: The value was 0.49 µg/mL.

Question: What about the “Stability” value (stored at 21-25° C., 180 days) of the same compound?
Answer: Its value is 0.50 µg/mL.

Question: What about the “Stability” value (stored at 21-25° C., 210 days) of the same compound?
Answer: The value was 0.49 µg/mL.

Question: What about the “Stability” value (stored at 21-25° C., 240 days) of the same compound?
Answer: The value was 0.49 µg/mL.

Question: What about the “Stability” value (stored at 21-25° C., 270 days) of the same compound?
Answer: The value was 0.49 µg/mL.

Question: And the “Stability” value (stored at 21-25° C., 300 days)?
Answer: The value was 0.50 µg/mL.

Question: What about the “Stability” value (stored at 21-25° C., 330 days) of the same compound?
Answer: The value was 0.50 µg/mL.

Question: What about the “Stability” value (stored at 21-25° C., 360 days) of the same compound?
Answer: The value was 0.49 µg/mL.

Question: And the “Stability” value (stored at 21-25° C., 390 days)?
Answer: The value was 0.49 µg/mL.

Question: What about the “Stability” value (stored at 21-25° C., 420 days) of the same compound?
Answer: Its value is 0.48 µg/mL.

Question: What about the “Stability” value (stored at 21-25° C., 450 days) of the same compound?
Answer: Its value is 0.49 µg/mL.

Question: What about the “Stability” value (stored at 21-25° C., 480 days) of the same compound?
Answer: Its value is 0.48 µg/mL.

Question: What about the “Stability” value (stored at 21-25° C., 510 days) of the same compound?
Answer: Its value is 0.47 µg/mL.

Question: What about the “Stability” value (stored at 21-25° C., 540 days) of the same compound?
Answer: Its value is 0.47 µg/mL.

Question: What about the “Stability” value (stored at 21-25° C., 570 days) of the same compound?
Answer: Its value is 0.47 µg/mL.
